The values that follow are results of earlier work, collected in patent publication US20200046722A1, “METHOD AND COMPOSITION FOR TREATING EATING DISORDERS” (India Globalization Capital, Inc., priority 2017, published 2020).

In one series the test system is cats. Particulars: versus placebo.
In series [1] the test system is patients with cancer related anorexia-cachexia syndrome. Particulars: at the dosage administered.

Turning to `CN1CCN2c3ncccc3Cc3ccccc3C2C1` (stereo not drawn) [mirtazapine, 1,2,3,4,10,14b-hexahydro-2-methylpyrazino[2,1-α]pyrido[2,3-c]benzazepine], in the series on cats, the “appetite in comparison with placebo” value is given as “greater appetite” and the “food ingested in comparison with placebo” value is “ingested significantly more food”.

For `CCCCCc1cc(O)c2c(c1)OC(C)(C)[C@@H]1CCC(C)=C[C@@H]21` [Delta-9-tetrahydrocannabinol (THC), Delta-9-tetrahydrocannabinol], in series [1], the appetite versus placebo entry is on record as “no difference” and the “patient's quality of life versus placebo” value is “no difference”.
